Drawing on patent US9193736B2, “PDE 10a inhibitors for the treatment of type II diabetes” (Janssen Pharmaceutica, NV, priority 2013, dated 2015), this text covers IC50, concentration and Kp for 19 compounds.

Structures can show the parent of a compound that is named as a salt.

The target of data set [1] is Human recombinant PDE10A2 (Homo sapiens (Human), UniProt Q9Y233). Description: In vitro hPDE10a: human recombinant PDE10A2 scintillation proximity assay, IC50. Format: biochemical. Particulars: human recombinant PDE10A2, SPA, 60 nM cAMP; read-out: hPDE10a2 IC50. The gist of the method:
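Purified recombinant human PDE10A2 (Ni-sepharose) was assayed by SPA, counting [3H]-AMP product captured on yttrium silicate beads added in zinc sulphate stop solution. Inhibition was expressed as % of activity without compound, with a no-enzyme low control. Repeat data points were aggregated.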

Data set [2] concerns the target Rat recombinant PDE10a (rPDE10a) (Rattus norvegicus (Rat), UniProt Q9QYJ6). Description: In vitro assay PDE10a: rat recombinant PDE10a SPA with 3H-cAMP substrate, IC50. The data set is classed as biochemical. Particulars: 60 nM cAMP, read-out: rPDE10a2 IC50. The gist of the method: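 Enzyme expressed in Sf9 cells via baculovirus and Ni-sepharose purified; reaction with 3H-cAMP ran 60 min at rt, stopped with PDE SPA beads. Compounds diluted in DMSO at 100-fold final concentration; blanks omitted enzyme.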

Data set [3] can be described thus: PDE10a perfused brain permeability study: plasma concentrations at 30 and 120 min, brain concentration at 120 min, brain/plasma ratio. Particulars: male, Sprague-Dawley, rat; for Kp at 2 h: brain/plasma.
Procedure: PDE10a-Brain Permeability Assay
A. PDE10a-Perfused Brain Permeability Study Protocol
Drug administration by oral gavage, subcutaneous injection or intravenous was carried out using male Sprague Dawley rats under IACUC protocol (SH-MET3010). Male Sprague Dawley rats (Charles River) ˜300-350 g were maintained on a 4% standard rodent diet (Test Diet 5001). They are allowed ad libitum access to water and food. Room temperature was maintained at 64° F. and humidity at 30-70%.
Three animals per compound were provided a dose of 2 mg/mL in 20% HpbCD/Tris pH 8 by tail i.v. or 30 mpk p.o. or s.c. in 20% HpbCD/Tris pH 8, with PDE10a antagonists. A first blood sample was collected at 30 min via retro-orbital sinus (anesthetic by 70% CO2/30% O2) into heparinzed plasma separator tubes. The blood was centrifuged and 100 μL plasma was placed into a 96 well plate and saved on dry ice.
After the 120 min, the final blood sample was collected via retro-orbital sinus under anesthesia by IP 0.5 cc injection of a 4/1 mixture of Ketaset: AnaSed [(prepared 10 mL Ketaset (100 mg/mL Ketamine)+2.5 mL AnaSed (20 mg/mL Xylazine)]. The rats were then perfused with 400 mL heparinized saline (10,000 units/L) through the left ventricle of the heart; the brains were then removed (not including the medulla), weighed and homogenized in PBS (4 mL/g tissue). The samples were stored at −80° C. and submitted for chemical analysis of blood and brain concentrations. Endpoints of sample analysis consists of the plasma concentrations at 30 and 120 min, plus brain concentrations at 120 min.

Human recombinant PDE10A2, sequence (Q9Y233 267-1055): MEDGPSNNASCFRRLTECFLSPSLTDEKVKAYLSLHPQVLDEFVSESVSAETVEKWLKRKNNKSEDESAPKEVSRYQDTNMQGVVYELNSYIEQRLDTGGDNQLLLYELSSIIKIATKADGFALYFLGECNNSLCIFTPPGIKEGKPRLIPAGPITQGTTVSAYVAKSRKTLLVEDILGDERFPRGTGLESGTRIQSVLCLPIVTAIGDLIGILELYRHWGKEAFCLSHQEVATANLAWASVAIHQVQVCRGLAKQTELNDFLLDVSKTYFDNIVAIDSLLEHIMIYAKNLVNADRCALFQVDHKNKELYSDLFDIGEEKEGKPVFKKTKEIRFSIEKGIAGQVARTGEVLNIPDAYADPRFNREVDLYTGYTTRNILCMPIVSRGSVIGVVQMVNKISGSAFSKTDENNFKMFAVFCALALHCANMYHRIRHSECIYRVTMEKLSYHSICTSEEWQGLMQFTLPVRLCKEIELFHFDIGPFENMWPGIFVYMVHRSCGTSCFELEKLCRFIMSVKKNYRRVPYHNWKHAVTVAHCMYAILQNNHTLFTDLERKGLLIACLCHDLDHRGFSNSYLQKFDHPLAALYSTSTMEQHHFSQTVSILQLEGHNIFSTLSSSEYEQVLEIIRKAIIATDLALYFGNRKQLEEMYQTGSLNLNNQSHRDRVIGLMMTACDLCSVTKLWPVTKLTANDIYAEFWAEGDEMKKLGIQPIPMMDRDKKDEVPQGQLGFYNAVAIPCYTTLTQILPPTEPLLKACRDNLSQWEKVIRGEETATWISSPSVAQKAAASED
Rat recombinant PDE10a (rPDE10a), sequence (Q9QYJ6 whole entry): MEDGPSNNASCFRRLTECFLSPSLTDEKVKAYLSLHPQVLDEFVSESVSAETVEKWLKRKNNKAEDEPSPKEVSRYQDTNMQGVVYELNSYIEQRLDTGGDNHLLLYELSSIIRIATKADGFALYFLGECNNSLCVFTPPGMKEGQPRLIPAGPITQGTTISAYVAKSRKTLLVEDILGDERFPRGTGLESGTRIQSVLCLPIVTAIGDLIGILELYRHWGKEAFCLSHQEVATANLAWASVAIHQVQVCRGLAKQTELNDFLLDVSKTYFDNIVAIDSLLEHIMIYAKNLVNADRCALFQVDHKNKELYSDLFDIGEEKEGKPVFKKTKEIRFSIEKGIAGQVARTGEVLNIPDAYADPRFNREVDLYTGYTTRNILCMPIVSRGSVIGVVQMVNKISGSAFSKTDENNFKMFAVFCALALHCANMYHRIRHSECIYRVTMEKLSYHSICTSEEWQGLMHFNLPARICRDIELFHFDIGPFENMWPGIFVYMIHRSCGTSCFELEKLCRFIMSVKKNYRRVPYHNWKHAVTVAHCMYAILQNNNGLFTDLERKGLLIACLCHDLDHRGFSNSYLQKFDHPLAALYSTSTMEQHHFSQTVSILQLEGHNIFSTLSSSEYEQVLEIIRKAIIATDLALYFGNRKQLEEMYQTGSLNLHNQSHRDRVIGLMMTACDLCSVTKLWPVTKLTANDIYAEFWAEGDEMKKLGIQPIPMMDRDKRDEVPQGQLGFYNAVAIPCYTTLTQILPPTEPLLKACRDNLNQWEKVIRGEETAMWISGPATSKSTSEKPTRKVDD

The IC50 is the concentration that gives 50% inhibition. In general, Kp refers to tissue or fluid exposure divided by exposure in the circulation. For `O=c1[nH]c(-c2ccc(-c3c(/C=C/c4ccc5ccccc5n4)nc4c(N5CCOCC5)ccnn34)cc2)no1` [Cpd 102, (E)-3-(4-(8-Morpholino-2-(2-(quinolin-2-yl)vinyl)imidazo[1,2-b]pyridazin-3-yl)phenyl)-1,2,4-oxadiazol-5(4H)-one], the figures for the concentration for half-maximal inhibition (IC50) in data set [1] and in data set [2] were 4 nM and 5 nM, respectively. For the same compound, the concentration at 2 h in data set [3] (brain) was 0 ng/g; in data set [3] (plasma) it was 155 ng/mL. Moreover, in data set [3], the partition ratio (Kp) at 2 h was 0.

Turning to `O=C(O)c1cccc(-c2c(/C=C/c3ccc4ccccc4n3)nc3c(N4CCOCC4)ccnn23)c1` [Cpd 124, (E)-3-(8-Morpholino-2-(2-(quinolin-2-yl)vinyl)imidazo[1,2-b]pyridazin-3-yl)benzoic acid], the figures for the IC50 in data set [1] and in data set [2] were 4 nM and 9 nM, respectively. The concentration at 2 h came to 0 ng/g in data set [3] (brain) and 86.6 ng/mL in data set [3] (plasma). The Kp at 2 h in data set [3] came to 0.

For the compound `CS(=O)(=O)NC(=O)c1ccc(-c2c(C#Cc3ccc4ccccc4n3)nc3c(N4CCOCC4)ccnn23)cc1` [compound 83, N-(Methylsulfonyl)-4-(8-morpholino-2-(quinolin-2-ylethynyl)imidazo[1,2-b]pyridazin-3-yl)benzamide], the IC50 in data set [1] and in data set [2] was 1 nM throughout. The concentration at 2 h in data set [3] (brain) is 0 ng/g; in data set [3] (plasma) it was 205 ng/mL. Also, the Kp at 2 h in data set [3] amounted to 0.

For the compound `CS(=O)(=O)NC(=O)c1ccc(-c2c(/C=C/c3ccc4ccccc4n3)nc3c(N4CCOCC4)ccnn23)cc1F` [compound 134, (E)-2-Fluoro-N-(methylsulfonyl)-4-(8-morpholino-2-(2-(quinolin-2-yl)vinyl)imidazo[1,2-b]pyridazin-3-yl)benzamide], the values for the IC50 in data set [1] and in data set [2] were 4 nM and 7 nM, respectively. Moreover, the results for the concentration at 2 h in data set [3] (brain) and in data set [3] (plasma) were 0 ng/g and 926 ng/mL, respectively. In addition, in data set [3], the Kp at 2 h is 0.

As for `O=C(O)CNc1ccc(-c2c(/C=C/c3ccc4ccccc4n3)nc3c(N4CCOCC4)ccnn23)cn1` [Cpd 17, (E)-2-(5-(8-Morpholino-2-(2-(quinolin-2-yl)vinyl)imidazo[1,2-b]pyridazin-3-yl)pyridin-2-ylamino)acetic acid], the values for the IC50 in data set [1] and in data set [2] were 3 nM and 2 nM, respectively. Also, the concentration at 2 h in data set [3] (brain) was determined as 0 ng/g; in data set [3] (plasma), 15.7 ng/mL. Further, the Kp at 2 h in data set [3] was found to be 0.

As to `CS(=O)(=O)NC(=O)c1ccc(-c2c(C#Cc3ccc4ccccc4n3)nc3c(N4CCOCC4)ccnn23)cn1` [Cpd 28, N-(Methylsulfonyl)-5-(8-morpholino-2-(quinolin-2-ylethynyl)imidazo[1,2-b]pyridazin-3-yl)picolinamide], the IC50 in data set [1] and in data set [2] was 1 nM throughout. Further, the concentration at 2 h in data set [3] (brain) stood at 0.95 ng/g; in data set [3] (plasma) it was 136 ng/mL. In addition, the concentration ratio (Kp) at 2 h in data set [3] came out at 0.01.

Regarding `O=C(O)c1ccc(-c2c(/C=C/c3ccc4ccccc4n3)nc3c(N4CCOCC4)ccnn23)cc1F` [compound 103, (E)-2-Fluoro-4-(8-morpholino-2-(2-(quinolin-2-yl)vinyl)imidazo[1,2-b]pyridazin-3-yl)benzoic acid], the IC50 in data set [1] and in data set [2] was 3 nM throughout. For the same compound, the concentration at 2 h in data set [3] (brain) was 0 ng/g; in data set [3] (plasma), 199 ng/mL. Moreover, in data set [3], the partition ratio (Kp) at 2 h was 0.

In the case of `CS(=O)(=O)NC(=O)c1ccc(-c2c(CCc3ccc4ccccc4n3)nc3c(N4CCOCC4)ccnn23)cn1` [Cpd 30, N-(Methylsulfonyl)-5-(8-morpholino-2-(2-(quinolin-2-yl)ethyl)imidazo[1,2-b]pyridazin-3-yl)picolinamide trifluoroacetic acid salt], the IC50 was determined as 1 nM in data set [1] and 2 nM in data set [2]. Further, the values for the concentration at 2 h in data set [3] (brain) and in data set [3] (plasma) were 40.2 ng/g and 107 ng/mL, respectively. In addition, the Kp at 2 h in data set [3] came to 2.5.

Turning to `COc1cc(-c2c(/C=C/c3ccc4ccccc4n3)nc3c(N4CCOCC4)ccnn23)ccc1C(=O)O` [compound 67, (E)-2-Methoxy-4-(8-morpholino-2-(2-(quinolin-2-yl)vinyl)imidazo[1,2-b]pyridazin-3-yl)benzoic acid], the IC50 in data set [1] was found to be 22 nM; in data set [2] it was 5 nM. In addition, the concentration at 2 h in data set [3] (brain) is 16.9 ng/g; in data set [3] (plasma) it was 725 ng/mL. In addition, the Kp at 2 h in data set [3] was 0.02.

Regarding `CC(=O)NS(=O)(=O)c1ccc(-c2c(CCc3ccc4ccccc4n3)nc3c(N4CCOCC4)ccnn23)cc1` [compound 42, N-((4-(8-Morpholino-2-(2-(quinolin-2-yl)ethyl)imidazo[1,2-b]pyridazin-3-yl)phenyl)sulfonyl)acetamide], the IC50 in data set [1] and in data set [2] was 1 nM each time. Also, the concentration at 2 h in data set [3] (brain) was found to be 0 ng/g; in data set [3] (plasma), 34 ng/mL. In addition, the Kp at 2 h in data set [3] came to 0.

For the compound `Oc1nc(O)c(-c2ccc(-c3c(/C=C/c4ccc5ccccc5n4)nc4c(N5CCOCC5)ccnn34)cc2)o1` [Cpd 65, 5-(4-{8-Morpholin-4-yl-2-[(E)-2-quinolin-2-ylethenyl]imidazo[1,2-b]pyridazin-3-yl}phenyl)-1,3-oxazole-2,4-diol], the IC50 was 10 nM in data set [1] and 8 nM in data set [2]. Also, the concentration at 2 h in data set [3] (brain) amounted to 14.5 ng/g; in data set [3] (plasma) it was 1610 ng/mL. For the same compound, in data set [3], the Kp at 2 h was found to be 0.01.

As for `CS(=O)(=O)NC(=O)c1ccc(-c2c(/C=C/c3ccc4ccccc4n3)nc3c(N4CCOCC4)ccnn23)cc1` [compound 39, (E)-N-(Methylsulfonyl)-4-(8-morpholino-2-(2-(quinolin-2-yl)vinyl)imidazo[1,2-b]pyridazin-3-yl)benzamide], the IC50 was found to be 5 nM in data set [1] and 3 nM in data set [2]. For the same compound, the concentration at 2 h in data set [3] (brain) amounted to 0 ng/g; in data set [3] (plasma), 147 ng/mL. Also, the Kp at 2 h in data set [3] was 0.

As to `O=C(O)c1ccc(-c2c(CCc3ccc4ccccc4n3)nc3c(N4CCOCC4)ccnn23)cc1` [compound 41, 4-(8-Morpholino-2-(2-(quinolin-2-yl)ethyl)imidazo[1,2-b]pyridazin-3-yl)benzoic acid], the IC50 in data set [1] and in data set [2] was 1 nM throughout. The concentration at 2 h in data set [3] (brain) was 0 ng/g; in data set [3] (plasma) it was 38 ng/mL. The Kp at 2 h in data set [3] stood at 0.

In the case of `OC(c1ccc(-c2c(/C=C/c3ccc4ccccc4n3)nc3c(N4CCOCC4)ccnn23)cc1)(C(F)(F)F)C(F)(F)F` [compound 52, (E)-1,1,1,3,3,3-Hexafluoro-2-(4-(8-morpholino-2-(2-(quinolin-2-yl)vinyl)imidazo[1,2-b]pyridazin-3-yl)phenyl)propan-2-ol], the IC50 in data set [1] is 52 nM; in data set [2] it was 41 nM. Further, the concentration at 2 h in data set [3] (brain) was 54 ng/g; in data set [3] (plasma), 326 ng/mL. For the same compound, the Kp at 2 h in data set [3] turned out to be 0.16.

As to `O=C(O)CCc1ccc(-c2c(/C=C/c3ccc4ccccc4n3)nc3c(N4CCOCC4)ccnn23)cc1` [Cpd 128, 3-(4-{8-Morpholin-4-yl-2-[(E)-2-quinolin-2-ylethenyl]imidazo[1,2-b]pyridazin-3-yl}phenyl)propanoic acid], the IC50 in data set [1] and in data set [2] was 5 nM each time. For the same compound, the values for the concentration at 2 h in data set [3] (brain) and in data set [3] (plasma) were 0 ng/g and 314 ng/mL, respectively. The Kp at 2 h in data set [3] turned out to be 0.

With `O=C(Nc1nc2c(N3CCOCC3)ccnn2c1-c1ccc(N2CCNCC2)nc1)c1ccc2ccccc2n1` [Cpd 8, N-(8-Morpholino-3-(6-(piperazin-1-yl)pyridin-3-yl)imidazo[1,2-b]pyridazin-2-yl)quinoline-2-carboxamide trifluoroacetic acid salt], the IC50 in data set [1] turned out to be 603 nM; in data set [2] it was 813 nM. Also, the figures for the concentration at 2 h in data set [3] (brain) and in data set [3] (plasma) were 38.8 ng/g and 33.7 ng/mL, respectively. In data set [3], the Kp at 2 h was 1.16.

On to `Oc1ncn(-c2ccc(-c3c(/C=C/c4ccc5ccccc5n4)nc4c(N5CCOCC5)ccnn34)cc2)n1` [Cpd 54, (E)-1-(4-(8-Morpholino-2-(2-(quinolin-2-yl)vinyl)imidazo[1,2-b]pyridazin-3-yl)phenyl)-1H-1,2,4-triazol-3-ol trifluoroacetic acid salt], for which the IC50 in data set [1] was found to be 7 nM; in data set [2], 11 nM. In addition, the concentration at 2 h in data set [3] (brain) came to 0 ng/g; in data set [3] (plasma), 23 ng/mL. In data set [3], the Kp at 2 h worked out at 0.

On to `CS(=O)(=O)NC(=O)c1ccc(-c2c(/C=C/c3ccc4ccccc4n3)nc3c(N4CCOCC4)ccnn23)cn1` [Cpd 27, (E)-N-(Methylsulfonyl)-5-(8-morpholino-2-(2-(quinolin-2-yl)vinyl)imidazo[1,2-b]pyridazin-3-yl)picolinamide trifluoroacetic acid salt], for which the concentration for half-maximal inhibition (IC50) in data set [1] and in data set [2] was 2 nM in each case. Moreover, the concentration at 2 h in data set [3] (brain) turned out to be 1.69 ng/g; in data set [3] (plasma), 438 ng/mL. In data set [3], the Kp at 2 h turned out to be 0.005.

Take `c1ccc2nc(SCc3nc4c(N5CCOCC5)ccnn4c3-c3ccc(N4CCNCC4)nc3)ccc2c1` [Cpd 6, 4-(3-(6-(piperazin-1-yl)pyridin-3-yl)-2-((quinolin-2-ylthio)methyl)imidazo[1,2-b]pyridazin-8-yl)morpholine trifluoroacetic acid salt]: the IC50 came out at 20 nM in data set [1] and 25 nM in data set [2]. For the same compound, the concentration at 2 h in data set [3] (brain) was 52 ng/g; in data set [3] (plasma) it was 135 ng/mL. Moreover, in data set [3], the partition ratio (Kp) at 2 h was 0.39.
